In ChEMBL document CHEMBL3272053, “(exo, exo)-2-Aryltropane-3-carboxylic esters, hypoglycemic agents with accompanying analgesic activity” (J Med Chem, 1978) one finds Activity and ED50 data, which are given here for 13 molecules.

Data set [1] has as its system Rattus norvegicus. Nature of the data set: Toxicity in Sprague-Dawley rat assessed as hyperexcitability at 240 mg/kg, po. Set-up: dose 240 mg/kg, route oral. The following applies: in vivo. Type of data set: organism-based.
In data set [2] the test system is Rattus norvegicus. Nature of the data set: Toxicity in Sprague-Dawley rat assessed as rigidity at 240 mg/kg, po. Set-up: dose 240 mg/kg, route oral. The format is organism-based. The following applies: in vivo.
The subject of data set [3] is Rattus norvegicus. Nature of the data set: Hypoglycemic activity in glucose loaded Sprague-Dawley rat assessed as reduction of blood glucose level at 100 mg/kg, po relative to control. Type of data set: functional. More on the design: scale not given: the % may be the effect or the level left.
Data set [4] deals with Rattus norvegicus. The data set is described as follows: Hypoglycemic activity in glucose loaded Sprague-Dawley rat assessed as reduction of blood glucose level at 100 mg/kg, po in presence of microsomal enzyme inhibitor SKF 525-A. The format is functional, organism-based. Set-up: dose 100 mg/kg.
For data set [5], the system named is Rattus norvegicus. The data set is described as follows: Toxicity in Sprague-Dawley rat assessed as tremor at 240 mg/kg, po. The following applies: in vivo. Type of data set: organism-based. More on the design: dose 240 mg/kg, route oral.
The subject of data set [6] is Mus musculus. Nature of the data set: Analgesic activity in Swiss-Webster mouse assessed as reduction of acetylcholine-induced writhing at 75 mg/kg, sc relative to control. The following applies: route subcutaneous. Type of data set: functional. Set-up: scale not given: the % may be the effect or the level left.
In data set [7] the test system is Rattus norvegicus. Nature of the data set: Narcotic analgesic activity in fasted Sprague-Dawley rat at 240 mg/kg, po measured at 15 mins by D'Amour-Smith tail-flick test relative to control. Type of data set: functional.
In data set [8] the test system is Rattus norvegicus. The data set is described as follows: Hypoglycemic activity in Sprague-Dawley rat assessed as reduction of blood glucose level at 89 mg/kg, po by glucagon-impaired glucose disposal test relative to control. More on the design: scale not given: the % may be the effect or the level left. The format is functional.
Data set [9] relates to Mus musculus. Nature of the data set: Analgesic activity in Swiss-Webster mouse assessed as reduction of acetylcholine-induced writhing at 25 mg/kg, sc relative to control. Type of data set: functional. Set-up: scale not given: the % may be the effect or the level left. The following applies: route subcutaneous.
The test system of data set [10] is Rattus norvegicus. The data set is described as follows: Hypoglycemic activity in fasted Sprague-Dawley rat assessed as reduction of blood glucose level at 100 mg/kg, po relative to control. The format is functional. Set-up: scale not given: the % may be the effect or the level left.
Data set [11] relates to Rattus norvegicus. The data set is described as follows: Narcotic analgesic activity in fed Sprague-Dawley rat at 120 mg/kg, sc measured at 30 mins by D'Amour-Smith tail-flick test. The format is functional. The following applies: route subcutaneous.
Data set [12] relates to Rattus norvegicus. Nature of the data set: Hypoglycemic activity in Sprague-Dawley rat assessed as reduction of blood glucose level at 100 mg/kg, po by glucagon-impaired glucose disposal test relative to control. Type of data set: functional. Set-up: scale not given: the % may be the effect or the level left.
Data set [13] has as its system Rattus norvegicus. Nature of the data set: Narcotic analgesic activity in fasted Sprague-Dawley rat at 240 mg/kg, po measured at 60 mins by D'Amour-Smith tail-flick test relative to control. Type of data set: functional.
Data set [14] concerns Rattus norvegicus. The data set is described as follows: Hypoglycemic activity in Sprague-Dawley rat assessed as reduction of blood glucose level at 88 mg/kg, po by glucagon-impaired glucose disposal test relative to control. Set-up: scale not given: the % may be the effect or the level left. The format is functional.
Data set [15] relates to Mus musculus. The data set is described as follows: Analgesic activity in sc dosed Swiss-Webster mouse assessed as reduction of acetylcholine-induced writhing. The following applies: Mus musculus, Swiss-Webster, sc; read-out: ED50. The format is functional.
Data set [16] has as its system Rattus norvegicus. The data set is described as follows: Toxicity in Sprague-Dawley rat assessed as tremor at 120 mg/kg, sc. The format is organism-based. More on the design: dose 120 mg/kg, route subcutaneous. The following applies: in vivo.
Data set [17] has as its system Mus musculus. The data set is described as follows: Toxicity in Swiss-Webster mouse assessed as sedation at 40 mg/kg, sc. The following applies: in vivo. Set-up: dose 40 mg/kg, route subcutaneous. Type of data set: organism-based.
In data set [18] the test system is Rattus norvegicus. The data set is described as follows: Toxicity in Sprague-Dawley rat assessed as convulsion at 240 mg/kg, po. The format is organism-based. The following applies: in vivo. More on the design: dose 240 mg/kg, route oral.
Data set [19] has as its system Rattus norvegicus. The data set is described as follows: Hypoglycemic activity in glucose loaded Sprague-Dawley rat assessed as reduction of blood glucose level at 64 mg/kg, po relative to control. The format is functional. Set-up: scale not given: the % may be the effect or the level left.
Data set [20] concerns Mus musculus. Nature of the data set: Analgesic activity in Swiss-Webster mouse assessed as reduction of acetylcholine-induced writhing at 50 mg/kg, po relative to control. More on the design: scale not given: the % may be the effect or the level left. Type of data set: functional.
Data set [21] relates to Rattus norvegicus. The data set is described as follows: Hypoglycemic activity in glucose loaded Sprague-Dawley rat assessed as reduction of blood glucose level at 89 mg/kg, po relative to control. The format is functional. More on the design: scale not given: the % may be the effect or the level left.
Data set [22] deals with Rattus norvegicus. Nature of the data set: Analgesic activity in rat assessed as protection against intraarterial bradykinin-induced pain response at 100 mg/kg, sc. Type of data set: functional, organism-based. Set-up: dose 100 mg/kg.

Calls of active or inactive are those of the source. No cut-off for these calls is given here. Where only a bound is given, the exact number is not on record here.

Turning to `CCOCCN1[C@@H]2CC[C@@H]1[C@@H](c1cccs1)[C@@H](C(=O)OC)C2`, the Activity result in data set [1] was “Toxic”; in data set [2], “Toxic”; in data set [3], 73%; in data set [5] it was “Toxic”; in data set [6] it was 67%; in data set [7], 100%. Also, the result in [4] was inactive.
In the case of `CC(C)OC(=O)[C@H]1C[C@H]2CC[C@H]([C@H]1c1ccccc1)N2C.Cl`, the Activity in data set [8] was determined as 28%.
As to `CCCCN1[C@@H]2CC[C@@H]1[C@@H](c1cccs1)[C@@H](C(=O)OC)C2`, the Activity is recorded as 20% in data set [9], 88% in data set [7] and 34% in [10].
With `COC(=O)[C@H]1C[C@H]2CC[C@H]([C@H]1c1cccs1)N2CCc1ccccc1`, the Activity in data set [6] amounted to 27%; in data set [7], 96%; in [10], 29%.
Take `COC(=O)[C@H]1C[C@H]2CC[C@H]([C@H]1c1cccs1)N2Cc1ccccc1`: the Activity in [11] is under 20%; in [12], under 20%; in [6], 33%.
`CCCOC(=O)[C@H]1C[C@H]2CC[C@H]([C@H]1c1cccs1)N2C`: the values for the Activity in data set [9], in data set [12] and in data set [13] were 27%, under 20% and under 20%, respectively.
Turning to `COC(=O)[C@H]1C[C@H]2CC[C@@H](N2)[C@H]1c1cccc(O)c1.Cl`, the Activity in [14], in data set [13] and in data set [7] was under 20% throughout. The ED50 in data set [15] was found to be 24 mg/kg.
As for `COC(=O)[C@H]1C[C@H]2CC[C@H]([C@H]1c1ccccc1)N2C.Cl` (racemic), the Activity in data set [11] is recorded as under 20%; in [14] it was 24%; in [16] it was “Toxic”; in data set [17], “Toxic”. The ED50 in [15] stood at 12 mg/kg.
On to `COC(=O)[C@H]1C[C@H]2CC[C@H]([C@H]1c1cccs1)N2CC1CCCO1` (some centres not stated), for which the Activity in [7] is 72%; in data set [10], 39%.
For the molecule `CC[N+]12Cc3ccsc3[C@H]3[C@@H](C(=O)OC)C[C@H]1CC[C@H]32`, the ED50 in [15] was 3.8 mg/kg. Moreover, in data set [12], the Activity is recorded as under 20%.
For `COC(=O)[C@H]1C[C@H]2CC[C@H]([C@H]1c1cccs1)N2CCCO.Cc1ccc(S(=O)(=O)O)cc1`, the Activity entry in [2] is reported as “Toxic”; in data set [18], “Toxic”; in data set [5], “Toxic”; in data set [19], 27%; in data set [20], 33%; in data set [7] it was 92%.
Turning to `COC(=O)[C@H]1C[C@H]2CC[C@H]([C@H]1c1cccs1)N2CC(N)=O.Cl`, the Activity entry is on record as “Toxic” in data set [2], 13% in data set [9], 66% in data set [21] and 72% in data set [7].
With `COC(=O)[C@H]1C[C@H]2CC[C@H]([C@H]1c1cccc(O)c1)N2C.Cl`, the outcome in data set [22] was inactive. Further, the Activity in [11] and in [14] was under 20% throughout. Besides, in data set [15], the ED50 was determined as 24 mg/kg.
